Several values for one entry are separate records, joined by “and”; a condition that tells them apart may be missing. Identical values can stand only once.
Key:
S. typhimurium TA98 = assay: Ames microplate test, TA98; assay type: cell-based, Salmonella typhimurium; conditions: positive control 0.5 μg/mL, + S9
Experimental: Bacteria were grown overnight in growth medium.

S. typhimurium TA100 = assay: Ames microplate test, TA100; assay type: cell-based, Salmonella typhimurium; conditions: positive control 1.25 μg/mL, + S9
S. typhimurium TA1535 = assay: Ames microplate test, TA1535; conditions: positive control 2.5 μg/mL, + S9;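 further: bacteria exposed 90 min at 37 °C in exposure medium, then 48 h in indicator medium in 384-well plates, yellow (revertant) wells counted per condition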
Experimental: The study used the Ames microplate test (Ames MPF™ Penta 2 by Xenometrix, Allschwil, Switzerland). Growth medium, exposure medium, indicator medium, positive controls, hepatic microsomal fraction, NADP, glucose-6-phosphate, Salmonella typhimurium and Escherichia coli strains were components of the purchased experimental kit. Bacteria were grown overnight in growth medium. They were then exposed to the test compound at the appropriate concentration in exposure medium without or with the rat microsomal fraction S9 in 24-well plates for 90 min at 37° C. with shaking. Then, indicator medium was added to the wells and pipetted into 384-well plates, which were incubated for 48 hours at 37° C. without shaking. Results were assessed by counting the wells in which the medium turned yellow for each experimental condition.

[1] = Lipophilicity coefficient RM0 by reversed phase thin layer chromatography; assay type: physicochemical; conditions: RP-18 TLC, methanol/phosphate buffer pH=7.4
Experimental: Confirmation of the identity and purity of the obtained compounds consisted in the registration and interpretation of 1H NMR and 13C NMR spectra (the spectra were recorded using an ECZR 500 MHZ (JEOL) series FT-NMR spectrophotometer), as well as the registration and interpretation of LC-MS spectra (the spectra were recorded using Acquita UPLC system (Waters) coupled with a Waters TQD mass spectrometer). The melting point was measured using the open capillary method in the IA9300 device (Electrothermal). The lipophilicity coefficient RM0 was determined by reversed phase thin layer chromatography. In the study, aluminum plates 20×20 cm covered with modified silica gel RP-18 F254 (Merck) were used as the solid phase. The mobile phase consisted of solutions of methanol and 100 mM phosphate buffer (pH=7.4), characterized by a variable methanol content ranging from 95 to 65% (v/v). The tested compounds were dissolved in methanol to obtain solutions with a concentration of 1 mg/mL. Then, […] of the solutions prepared in this way were transferred to the starting line on aluminum plates, which were then placed in chromatographic chambers previously saturated with mobile phase vapors for at least 1 hour. All activities, including the development of chromatograms, were carried out at room temperature. After developing the chromatograms to approximately 1-2 cm from the end of the plate, the plates were dried and then the distance traveled by the tested compounds was visualized under UV light (λ=254 nm). The experiment was performed in duplicate for the specified conditions. For all samples, Rf was calculated according to the formula Rf=a/b, where a—the distance traveled by the tested compound, b—the distance traveled by the mobile phase. Then, the RM parameter was calculated for all samples according to the formula RM=log (1/Rf−1), obtaining a linear relationship between the RM values and the methanol concentration in the mobile phase. The log P coefficient was also calculated using the following computer programs: ACD/ChemSketch 2020.1.2 and ChemDraw 20.0.0.41.

tyrosinase from mushroom [2] = molecular target: T1, tyrosinase from mushroom (Agaricus bisporus, UniProt C7FF04); assay: Inhibition of commercial mushroom tyrosinase, substrate L-DOPA; assay type: biochemical; conditions: 500 μM; read-out: Tyrosinase inhibition with L-DOPA [%]
T1 sequence (C7FF04 2-392): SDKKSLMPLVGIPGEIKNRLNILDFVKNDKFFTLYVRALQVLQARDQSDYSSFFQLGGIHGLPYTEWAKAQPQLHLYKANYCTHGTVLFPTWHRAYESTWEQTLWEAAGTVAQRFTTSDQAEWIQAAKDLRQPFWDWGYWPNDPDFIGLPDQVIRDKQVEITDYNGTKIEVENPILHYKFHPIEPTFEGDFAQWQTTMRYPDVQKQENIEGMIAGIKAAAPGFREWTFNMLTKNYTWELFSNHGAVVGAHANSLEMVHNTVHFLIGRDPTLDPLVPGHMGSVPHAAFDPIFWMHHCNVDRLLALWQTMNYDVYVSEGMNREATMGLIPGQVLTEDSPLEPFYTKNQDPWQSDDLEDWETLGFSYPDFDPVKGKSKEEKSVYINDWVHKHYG
T1 sequence (G1K3P4 entry or part of it, further chain): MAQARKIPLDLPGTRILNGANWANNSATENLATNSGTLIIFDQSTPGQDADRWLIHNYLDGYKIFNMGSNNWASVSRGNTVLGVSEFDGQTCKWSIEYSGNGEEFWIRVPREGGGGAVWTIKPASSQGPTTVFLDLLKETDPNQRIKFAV
Experimental: (§1) Studies on the Inhibition of the Activity of Commercial Tyrosinase from Mushroom (Sigma: T3824)
(§2) The following substrates were used for the enzymatic reaction: L-tyrosine and L-3,4-dihyroxyphenylalanine (L-DOPA). Both substrates were used in independent experiments. According to the literature, the use of L-DOPA enables the assessment of tyrosinase diphenolase activity, and L-tyrosine—the tyrosinase monophenolase activity. The determinations were performed in 96-well plates, in each well there was placed: 170 μL or 127.5 μL of 50 mM phosphate buffer (pH=6.8) with tyrosinase (1U/well or 3U/well) and 10 μL of a solution of the tested compound in DMSO (the final concentration in the well was 500 μM, 250 μM or 125 μM). The negative control used 10 u L of pure solvent (DMSO). To initiate the reaction, an appropriate substrate was added: L-tyrosine (62.5 μL of solution in phosphate buffer) or L-DOPA (20 μL of solution in phosphate buffer). After a 25-minute incubation, the absorbance was measured at 475 nm using a microplate reader. The percentage of inhibition of tyrosinase activity was calculated using the formula: [(AC−AT)/[…], where AC—is the absorbance of the negative control, AT—is the absorbance of the sample containing the tested compound.

[3] = tested on: B16-F10 murine melanoma cell line; assay: Cytotoxicity (MTT) in B16-F10 murine melanoma cells; assay type: cell-based; conditions: 48 h
Experimental: Cytotoxicity Assessment in the B16-F10 Murine Melanoma Cell Line (ATTC CRL-6745)—Preliminary Safety Assessment for Subsequent Studies
In order to determine safe doses of compounds for testing the inhibition of melanogenesis in a murine melanoma cell line, cytotoxicity tests were performed. Cytotoxicity was determined by the colorimetric method using MTT ([3-(4,5-dimethyl-2-thiazolyl)-2,5-diphenyl-2H-tetrazolium bromide, Sigma M5655). For this purpose, cells were transferred to 96-well plates in an amount of 5000/well. After 24 h of culture in an incubator in F10-Ham medium with 1% FBS, the tested compounds at various concentrations were added to the wells together with fresh medium. DMSO was added to the medium in a negative control. The MTT test was performed after further culture for 48 h. Then the medium was removed and the formed formazan crystals were dissolved in DMSO. The absorbance was measured at 570 nm in a plate reader and the result was compared to the control (DMSO), which was 100%. The percentage of viability was calculated using the formula: [AT/AC*100], where AT is the absorbance of the test sample, AC—absorbance of the control sample.

tyrosinase from mushroom [4] = molecular target: T1, tyrosinase from mushroom; assay: Inhibition of commercial mushroom tyrosinase, substrate L-tyrosine; assay type: biochemical; conditions: 500 μM; read-out: Tyrosinase inhibition with L-tyrosine [%]
Experimental: as §1, §2

SMILES | Increase in the number of yellow wells compared to the reference level, TA98 (S. typhimurium TA98) | Increase in the number of yellow wells compared to the reference level, TA100 (S. typhimurium TA100) | Increase in the number of yellow wells compared to the reference level, TA1535 (S. typhimurium TA1535) | RM0 [1] | inhibition at 500 µM (tyrosinase from mushroom [2]) [%] | Cytotoxicity study in B16F10 cells, % viability ([3]; 150 μM) [%] | Cytotoxicity study in B16F10 cells, % viability ([3]; 200 μM) [%] | Cytotoxicity study in B16F10 cells, % viability ([3]; 250 μM) [%] | inhibition at 500 µM (tyrosinase from mushroom [4]) [%]
Nc1ccc2cc3ccccc3cc2c1 [Compound 2-AA, 2-aminoanthracene, reference compound] | 24.00 and 15.03 | 4.00 |  |  |  |  |  |  | 
Nc1c2ccccc2nc2ccccc12 [Compound 9-AA, reference compound] |  |  | 10.25 and 15.41 |  |  |  |  |  | 
CCC(CO)NC(=O)/C=C/c1ccc(Cl)cc1 (centres unmarked) [Compound A-01, (2E)-3-(4-chlorophenyl)-N-(1-hydroxybutan-2-yl)prop-2-enamide] |  |  |  | 2.43 | 44 ± 2.6 | 73.6 | 93.2 | 85.4 | 61.8 ± 0.4
O=C(/C=C/c1ccccc1)NCCCCO [Compound A-43, (2E)-N-(4-hydroxybutyl)-3-phenylprop-2-enamide] |  |  |  | 1.60 | 34.5 ± 4.18 | 108.9 | 105.7 | 103.2 | 35.5 ± 1.37
CCC(O)CNC(=O)/C=C/c1ccc(C)cc1 (centres unmarked) [Compound A-63, (2E)-N-(2-hydroxybutyl)-3-(4-methylphenyl)prop-2-enamide] |  |  |  | 2.39 | 21.2 ± 1.26 | 90.2 | 87.3 | 87.4 | 30.2 ± 10.2
Cc1ccc(/C=C/C(=O)NC(C)CO)cc1 (centres unmarked) [Compound A-69, (2E)-N-(1-hydroxypropan-2-yl)-3-(4-methylphenyl)prop-2-enamide] |  |  |  | 2.17 | 23 ± 6.64 | 96.6 | 101.3 | 97.5 | 4.4 ± 7.15
O=C(/C=C/c1ccc(Cl)cc1)N1CCC(O)CC1 [Compound A-99, (2E)-3-(4-chlorophenyl)-1-(4-hydroxypiperidin-1-yl)prop-2-en-1-one] |  |  |  | 2.27 |  | 109.8 | 102.6 | 96.6 | 75.1 ± 1.6
CC(C)C(CO)NC(=O)/C=C/c1ccc(Cl)cc1 (centres unmarked) [Compound A-106, (2E)-3-(4-chlorophenyl)-N-(1-hydroxy-3-methylbutan-2-yl)prop-2-enamide] |  |  |  | 2.76 | 41.2 ± 0.81 | 85.9 | 88.1 | 72.6 | 57.6 ± 2.11

From patent publication US20250263376A1, “(E)-N-CINNAMOYLAMINOALKANOLS WITH MELANOGENESIS INHIBITORY ACTIVITY” (Uniwersytet Jagiellonski, priority 2024, published 2025)
